Test results as given in US20220279787A1, “a-Substituted Phenyl Structure-Containing Compound, Preparation Method Thereof, and Disinfectant” (Henan Ruibo Pharmaceutical Technology Co. Ltd., priority 2019, published 2022).

What was measured:
Format in all cases: cell-based
[1] = tested on: Escherichia coli ATCC 25922; experiment: Suspension quantitative sterilization experiment, Escherichia coli ATCC 25922; conditions: suspension method, 6.25 g/L, action time 30 min
Procedure: (§1) (5) Operation Method of Suspension Quantitative Experiment:
(§2) a. The freeze-dried strain tube was provided, opened up under an aseptic condition, and an appropriate amount of nutrient broth was added thereto with a capillary pipette. The strain was melted and dispersed by gently blowing and sucking several times. A test tube containing 5.0 mL-10.0 mL of nutrient broth medium was provided, and a small amount of bacterial suspension was dropped thereto, and incubated at 37° C. for 18 h-24 h. The bacterial suspension of the first generation culture was taken by using an inoculation loop, and streaked and inoculated onto a nutrient agar medium plate, and incubated at 37° C. for 18 h-24 h. The typical colonies from the second generation culture was picked out, inoculated onto a nutrient agar slant, and incubated at 37° C. for 18 h-24 h, obtaining the third generation culture.
(§3) b. The monoclonal strains of the third generation culture of Escherichia coli ATCC 25922, Staphylococcus aureus ATCC 29213, and Pseudomonas aeruginosa ATCC 27853 were picked out respectively and placed in 3 mL of NMB. The strains were shaken in a constant temperature culture shaker for 3 h with a rotation speed of 220 rpm, obtaining a bacterial suspension with a concentration of (1-5)×10^8 CFU/mL.
(§4) c. 0.5 mL of bacterial suspension was added to a sterile test tube, and 0.5 mL of an organic interfering substance (0.03 mol/L PBS buffer) was then added thereto. They were mixed to be uniform, and placed in a water bath at 20° C.±1° C. for 5 min. 4.0 mL of the sample to be tested prepared in step (1) was drawn with a sterile pipette and injected into the mixed solution, mixed quickly, and the time was recorded immediately.
(§5) d. After the experimental bacteria interacted with the sample to be tested for the predetermined time of 1 min, 5 min, 15 min and 30 min. 0.5 mL of the mixture of the experimental bacteria and the sample to be tested was drawn respectively and added to 4.5 mL of a neutralizer, and mixed to be uniform.
(§6) e. After 10 min of neutralization, 1.0 mL of the sample solution was drawn, and the number of viable bacteria was determined by viable count method. After the viable count method, sample solution of each pipette was inoculated onto 2 plates. When the number of colonies growing on the plate was large, 10-fold dilution was performed, and then the viable bacteria was cultured and counted.
(§7) f. At the same time, PBS buffer was used to replace the sample to be tested, and a parallel test was performed as a positive control.
(§8) g. All test samples were placed in a 37° C. incubator overnight, and the results were observed.
(§9) h. The experiment was repeated for 3 times, the concentration of viable bacteria (CFU/mL) of each group was calculated, and converted to logarithmic value (N), and then the killing logarithmic value was calculated according to the following equation:
(§10) Killing logarithmic value (KL)=the logarithmic value of the average viable bacteria concentration of the control group (No)−the logarithmic value of the viable bacteria concentration of the test group (Nx).
(§11) When calculating the killing logarithmic value, two digits after the decimal point was kept, and digital round-off was allowed.

[2] = tested on: Pseudomonas aeruginosa ATCC 27853; experiment: Suspension quantitative sterilization experiment, Pseudomonas aeruginosa ATCC 27853; conditions: suspension method, 6.25 g/L, action time 30 min
Procedure: as §1, §2, §3, §4, §5, §6, §7, §8, §9, §10, §11

[3] = tested on: Staphylococcus aureus ATCC 29213; experiment: Suspension quantitative sterilization experiment, Staphylococcus aureus ATCC 29213; conditions: suspension method, 6.25 g/L, action time 30 min
Procedure: as §1, §2, §3, §4, §5, §6, §7, §8, §9, §10, §11

[4] = tested on: Bacillus subtilis var. niger spores ATCC 9372; experiment: Suspension quantitative experiment, Bacillus subtilis var. niger spores; conditions: Bacillus subtilis, ATCC9372, 0.5 h, read-out: Activity (killing logarithmic value)
Procedure: (4) Operation Method of Suspension Quantitative Experiment:
a. The Bacillus subtilis var. niger spores ATCC 9372 freeze-dried strain tube was provided, opened up under an aseptic condition, and an appropriate amount of nutrient broth was added thereto with a capillary pipette. The strain was melted and dispersed by gently blowing and sucking several times. A test tube containing 5.0 mL-10.0 mL of nutrient broth medium was provided, and a small amount of bacterial suspension was dropped thereto, and incubated at 37° C. for 18 h-24 h. The bacterial suspension of the first generation culture was taken by using an inoculation loop.
b. The monoclonal strains of the first generation culture were picked out and placed in 3 mL of NMB. The strains were shaken in a constant temperature culture shaker for 3 h with a rotation speed of 220 rpm, obtaining a bacterial suspension with a concentration of (1-5)×10^8 CFU/mL.
as §4
d. After the experimental bacteria interacted with the sample to be tested for the predetermined time. 0.5 mL of the mixture of the experimental bacteria and a disinfectant was drawn respectively and added to 4.5 mL of a neutralizer, and mixed to be uniform.
as §6
h. At the same time, PBS buffer was used to replace the sample to be tested, and a parallel test was performed as a positive control.
f. All test samples were placed in a 37° C. incubator overnight, and the results were observed.
g. The experiment was repeated for 3 times, the concentration of viable bacteria (CFU/mL) of each group was calculated, and converted to logarithmic value (N), and then the killing logarithmic value was calculated according to the following equation:
as §10, §11

CNC(=O)C(c1ccc(O)c(O)c1)C1CCCCC1 (stereo not shown) [Example 1, 2-cyclohexyl-2-(3,4-dihydroxyphenyl)-N-methylacetamide]
Activity (killing logarithmic value) [1]: 1.23
Activity (killing logarithmic value) [2]: 1.31
Activity (killing logarithmic value) [3]: 1.16
log reduction at 15000 µg/mL [4]: 1.35

CC(C)NC(=O)C(c1ccccc1)c1ccc(O)cc1 (stereo not shown) [Example 2, 2-(4-hydroxyphenyl)-N-isopropyl-2-phenylacetamide]
Activity (killing logarithmic value) [1]: 0.97
Activity (killing logarithmic value) [2]: 0.99
Activity (killing logarithmic value) [3]: 0.89
log reduction at 15000 µg/mL [4]: 0.98

CNC(=O)C(c1ccccc1)c1ccc(F)c(F)c1 (stereo not shown) [Example 3, 2-(3,4-difluorophenyl)-N-methyl-2-phenylacetamide]
Activity (killing logarithmic value) [1]: 1.14
Activity (killing logarithmic value) [2]: 1.56
Activity (killing logarithmic value) [3]: 1.54
log reduction at 15000 µg/mL [4]: 2.07

Cc1ccc(C(C(=O)O)c2ccc(O)cc2)cc1 (stereo not shown) [Example 4, 2-(4-hydroxyphenyl)-2-p-tolueneacetic acid]
Activity (killing logarithmic value) [1]: 0.78
Activity (killing logarithmic value) [2]: 0.78
Activity (killing logarithmic value) [3]: 0.75
log reduction at 15000 µg/mL [4]: 1.54

CNC(=O)C(c1ccncc1)c1ccc(O)c(O)c1 (stereo not shown) [Example 6, 2-(3,4-dihydroxyphenyl)-N-methyl-2-(4-pyridyl)acetamide]
Activity (killing logarithmic value) [1]: 1.64
Activity (killing logarithmic value) [2]: 0.31
Activity (killing logarithmic value) [3]: 1.78
log reduction at 15000 µg/mL [4]: 0.76

O=C(O)C(c1ccccc1)c1ccccc1 [Example 7, 2,2-diphenylacetic acid]
Activity (killing logarithmic value) [1]: 1.02
Activity (killing logarithmic value) [2]: 1.29
Activity (killing logarithmic value) [3]: 1.45
log reduction at 15000 µg/mL [4]: 1.97

O=C(O)C(c1ccc(O)c(O)c1)c1ccc(O)c(O)c1 [Example 8, 2,2-di-(3,4-dihydroxyphenyl)acetic acid]
Activity (killing logarithmic value) [1]: 1.73
Activity (killing logarithmic value) [2]: 0.88
Activity (killing logarithmic value) [3]: 0.91
log reduction at 15000 µg/mL [4]: 2.13
